Holding throughout (type): functional
Test [1] has as its system Olepa ricini. Nature of the test: Antifeedant activity against moulted fifth larval stage of Olepa ricini infested on castor leaves assessed as feeding deterrence index at 2 ppm by leaf disk assay relative to control.
The test system of test [2] is Euproctis fraterna. The test is described as follows: Antifeedant activity against moulted fifth larval stage of Euproctis fraterna infested castor leaves assessed as feeding deterrence index at 20 ppm by leaf disk assay relative to control.
Test [3] has as its system Euproctis fraterna. The test is described as follows: Antifeedant activity against moulted fifth larval stage of Euproctis fraterna infested castor leaves assessed as feeding deterrence index at 2000 ppm by leaf disk assay relative to control.
In test [4] the test system is Euproctis fraterna. Nature of the test: Antifeedant activity against moulted fifth larval stage of Euproctis fraterna infested castor leaves assessed as feeding deterrence index at 200 ppm by leaf disk assay relative to control.
In test [5] the test system is Olepa ricini. Nature of the test: Antifeedant activity against moulted fifth larval stage of Olepa ricini infested on castor leaves assessed as feeding deterrence index at 2000 ppm by leaf disk assay relative to control.
Test [6] deals with Olepa ricini. Nature of the test: Antifeedant activity against moulted fifth larval stage of Olepa ricini infested on castor leaves assessed as feeding deterrence index at 20 ppm by leaf disk assay relative to control.
Test [7] has as its system Olepa ricini. The test is described as follows: Antifeedant activity against moulted fifth larval stage of Olepa ricini infested on castor leaves assessed as feeding deterrence index at 200 ppm by leaf disk assay relative to control.
In test [8] the test system is Olepa ricini. Nature of the test: Antifeedant activity against moulted fifth larval stage of Olepa ricini infested on castor leaves assessed as feeding deterrence index at 0.2 ppm by leaf disk assay relative to control.
Test [9] concerns Euproctis fraterna. The test is described as follows: Antifeedant activity against moulted fifth larval stage of Euproctis fraterna infested castor leaves assessed as feeding deterrence index at 0.2 ppm by leaf disk assay relative to control.
Test [10] concerns Euproctis fraterna. The test is described as follows: Antifeedant activity against moulted fifth larval stage of Euproctis fraterna infested castor leaves assessed as feeding deterrence index at 2 ppm by leaf disk assay relative to control.

Structures are written as SMILES.

With `C=C1C(=O)O[C@@H]2C/C(C)=C\C(=O)C[C@@H](C)[C@@H](OC(=O)/C(C)=C\C)[C@H](O)[C@@H]12` [VICOLIDE B], the FDI worked out at 21.06% in test [1]; 20.28% in test [2]; 57.03% in [3]; 22.54% in test [4]; 48.68% in [5]; 24.36% in [6]. The FDI was 40.93% in test [7], 12.83% in test [8], 12.17% in [9] and 13.98% in [10].

`C=C1C(=O)O[C@H]2[C@H]1[C@@H](OC(=O)[C@@H](C)CC)[C@H](OC(C)=O)[C@H](C)C[C@@H](O)[C@H]1O[C@@]1(C)[C@@H]2O` [VICOLIDE C]: the FDI in test [1] is given as 9.61%; in test [2], 22.37%; in test [3], 26.56%; in test [4] it was 26.76%; in [5] it was 38.26%; in [6] it was 17.74%. The FDI in [7] was 30.59%; in test [8] it was 4.44%; in test [9], 13.98%; in [10] it was 18.6%.

Turning to `C=C1C(=O)O[C@H]2[C@H]1[C@@H](O)[C@H](OC(=O)/C(C)=C\C)[C@H](C)[C@@H]1C(=O)C=C(C)[C@H]21` [VICOLIDE A], the FDI turned out to be 13.35% in test [1]; 15.33% in [2]; 15.06% in test [3]; 15.33% in test [4]; 42.86% in test [5]; 22.28% in test [6]. The FDI came out at 29.66% in test [7], 6.17% in test [8], 8.43% in test [9] and 8.99% in test [10].

Regarding `C=C1C(=O)O[C@@H]2C/C(C)=C\C(=O)C[C@@H](C)[C@@H](OC(=O)[C@]3(C)O[C@@H]3C)[C@H](O)[C@@H]12` [VICOLIDE D], the FDI turned out to be 17.74% in test [1]; 15.37% in [2]; 35.68% in test [3]; 20.46% in test [4]; 46.88% in test [5]; 27.62% in [6]. For the same molecule, the FDI was 40.93% in test [7], 10.61% in test [8], 10.99% in test [9] and 14.44% in [10].

These data come from ChEMBL document CHEMBL3045614, “Antifeedant activity of vicolides from Pentanema indicum” (1999).
